According to patent publication US6828475B1, “Nucleic acid sequences encoding a plant cytoplasmic protein involved in fatty acyl-CoA metabolism” (Calgene LLC, priority 1994, dated 2004):

What was measured:
jojoba wax synthase = experiment: Wax synthase assay in jojoba microsomal membrane fraction; type: biochemical; settings: for Wax synthase Activity, Acyl Group: 80 μM acyl-CoA substrate, 100 μM radiolabeled oleyl alcohol; for Wax synthase Activity, Acyl Group / Wax synthase Activity, Alcohol Group: microsomal membrane fraction; for Wax synthase Activity, Alcohol Group: 100 μM alcohol substrate, 40 μM radiolabeled eicosenoyl-CoA
Description: Wax synthase activity in a microsomal membrane preparation is measured by incubation of 40 μM [1-^14C] acyl-CoA (usually palmitoyl-CoA, sp. act. 5.1-5.6 mCi/mmol) and 200 μM oleyl alcohol with the sample to be assayed in a total volume of 0.25 ml. The incubation mixture also contains 20% w/v glycerol, 1 mM DTT, 0.5M NaCl and is buffered with 25 mM HEPES (4-[2-hydroxyethyl]-1-piperazineethane-sulfonic acid). HEPES, here and as referred to hereafter is added from a 1M stock solution adjusted to pH 7.5.
A substrate mixture is prepared in a glass vial, with oleyl alcohol being added immediately before use, and is added to samples. Incubation is carried out at 30° C. for one hour. The assay is terminated by placing the assay tube on ice and immediately adding 0.25 ml isopropanol:acetic acid (4:1 v/v). Unlabeled wax esters (0.1 mg) and oleyl alcohol (0.1 mg) are added as carriers. The [^14C] lipids are extracted by the scaled-down protocol of Hara and Radin (Anal. Biochem. (1978) 90:420). Four ml of hexane/isopropanol (3:2, v/v) is added to the terminated assay. The sample is vortexed, 2 ml of aqueous sodium sulphate solution (6.6% w/v) is added, and the sample is again vortexed.
1. Extensive Analysis: Following addition of the sodium sulphate and vortexing the sample, the upper organic phase is removed and the lower aqueous phase is washed with 4 ml hexane/isopropanol (7:2 v/v). The organic phases are pooled and evaporated to dryness under nitrogen. The lipid residue is resuspended in a small volume of hexane, and an aliquot is assayed for radioactivity by liquid scintillation counting. The remainder of the sample can be used for TLC analysis of the labeled classes and thereby give a measure of total wax produced.
For lipid class analysis the sample is applied to a silica TLC plate, and the plate is developed in hexane/diethyl ether/acetic acid (80:20:1 v/v/v). The distribution of radioactivity between the lipid classes, largely wax esters, free fatty acids, fatty alcohols, and polar lipids at the origin, is measured using an AMBIS radioanalytic imaging system (AMBIS Systems Inc., San Diego, Calif.). If necessary the individual lipid classes can be recovered from the TLC plate for further analysis. Reversed-phase TLC systems using C18 plates developed in methanol have also been used for the analysis.
2. Quick Analysis: Following addition of the sodium sulfate and vortexing the sample, a known percentage of the organic phase is removed and counted via liquid scintillation counting. This calculation is used to estimate the total counts in the organic phase. Another portion of the organic phase is then removed, dryed down under nitrogen, redissolved in hexane and spotted on TLC plates and developed and scanned as described for the detailed assay. In this manner the percentage of the total counts which are incorporated into wax is determined.
Acyl-CoA and alcohol substrates having varying carbon chain lengths and degrees of unsaturation were added to a microsomal membrane fraction having wax synthase activity to determine the range of substrates recognized by the jojoba wax synthase. Wax synthase activity was measured as described in Example 1, with acyl specificity measured using 80 μM of acyl-CoA substrate and 100 μM of radiolabeled oleyl alcohol. Alcohol specificity was measured using 100 μM of alcohol substrate and 40 μM of radiolabeled eicosenoyl-CoA.

[1] = system: NADH-dependent fatty acyl-CoA reductase; experiment: NADH-dependent fatty acyl-CoA reductase assay, solubilized microsomal membranes; type: biochemical, Euglena gracilis; settings: in the assay at levels above the CMC (approximately 0.5% (w/v))
Description: For example, an NADH-dependent fatty acyl-CoA reductase activity can be obtained from microsomal membranes isolated from Euglena gracilis. Methods which may be used to isolate microsomal membranes are described, for example in the published PCT patent application WO 92/14816 (application number PCT/US92/03164, filed Feb. 21, 1992). The reductase activity is solubilized from these membranes using the same approaches as used for jojoba reductase and wax synthase. Membranes are incubated on ice for one hour with various amounts of the detergent, CHAPS, in a buffering solution consisting of 25 mM BisTris, pH 6.9, 250 mM NaCl, 10% glycerol and 1 mM EDTA. The sample is then centrifuged at 200,000×g for one hour, and the supernatant and pellet fractions assayed for NADH-dependent reductase activity using radiolabeled palmitoyl-CoA and NADH as substrates. A convenient assay for reductase activity is described in PCT patent application WO 92/14816. Incubation of the membranes with 0.3, 0.5 or 0.7 % (w/v) CHAPS results in retention of reductase activity in the supernatant fractions, indicative of solubilization of the enzyme. If CHAPS is omitted during the incubation and centrifugation, all of the reductase activity is found in the pellet fraction. All of the samples are diluted ten-fold in this same buffer solution prior to assaying in order to dilute the CHAPS present during the incubation.

Row | Molecule | Wax synthase Activity, Acyl Group (jojoba wax synthase) | Wax synthase Activity, Alcohol Group (jojoba wax synthase) | further results
1 | CCCCCCCCCCCC(=O)SCCNC(=O)CCNC(=O)[C@H](O)C(C)(C)COP(=O)(O)OP(=O)(O)OC[C@H]1O[C@@H](n2cnc3c(N)ncnc32)[C@H](O)[C@@H]1OP(=O)(O)O [12:0] | 12 pmol/min | 100 pmol/min | 
2 | CCCCCCCCCCCCCC(=O)SCCNC(=O)CCNC(=O)[C@H](O)C(C)(C)COP(=O)(O)OP(=O)(O)OC[C@H]1O[C@@H](n2cnc3c(N)ncnc32)[C@H](O)[C@@H]1OP(=O)(O)O [14:0] | 95 pmol/min | 145 pmol/min | 
3 | CCCCCCCCCCCCCCCC(=O)SCCNC(=O)CCNC(=O)[C@H](O)C(C)(C)COP(=O)(O)OP(=O)(O)OC[C@H]1O[C@@H](n2cnc3c(N)ncnc32)[C@H](O)[C@@H]1OP(=O)(O)O [16:0] | 81 pmol/min | 107 pmol/min | 
4 | CCCCCCCCCCCCCCCCCC(=O)SCCNC(=O)CCNC(=O)[C@H](O)C(C)(C)COP(=O)(O)OP(=O)(O)OC[C@H]1O[C@@H](n2cnc3c(N)ncnc32)[C@H](O)[C@@H]1OP(=O)(O)O [18:0] | 51 pmol/min | 56 pmol/min | 
5 | CCCCCCCCCCCCCCCCCCCC(=O)SCCNC(=O)CCNC(=O)[C@H](O)C(C)(C)COP(=O)(O)OP(=O)(O)OC[C@H]1O[C@@H](n2cnc3c(N)ncnc32)[C@H](O)[C@@H]1OP(=O)(O)O [20:0] | 49 pmol/min | 21 pmol/min | 
6 | CCCCCCCCCCCCCCCCCCCCCC(=O)SCCNC(=O)CCNC(=O)[C@H](O)C(C)(C)COP(=O)(O)OP(=O)(O)OC[C@H]1O[C@@H](n2cnc3c(N)ncnc32)[C@H](O)[C@@H]1OP(=O)(O)O [22:0] | 46 pmol/min | 17 pmol/min | 
7 | C[C@H](CCC(=O)NCCC[N+](C)(C)CCCS(=O)(=O)[O-])[C@H]1CC[C@H]2[C@@H]3[C@H](O)C[C@@H]4C[C@H](O)CC[C@]4(C)[C@H]3C[C@H](O)[C@]12C [CHAPS, 3-[(3-cholamidopropyl)-dimethyl-ammonio]-1-propanesulfonate] |  |  | effect on reductase enzyme activity [1]: inhibition of enzyme activity
8 | NC(=O)CI [Iodoacetamide] |  |  | effect of sulphydryl agents on wax synthase activity (inhibition) (jojoba wax synthase): much less effective
9 | CCCCCCCCCCCCCCCC(=O)SCCNC(C)=O [N-acetyl-S-palmitoyl cysteamine] |  |  | wax synthase activity towards acyl-thioester substrates (jojoba wax synthase; as acyl substrate): no activity was detectable
10 | CCNC(=O)/C=C\C(N)=O [N-ethylmaleamide] |  |  | effect of sulphydryl agents on wax synthase activity (inhibition) (jojoba wax synthase): much less effective
11 | CCCCCCCCCCCCCCCC(=O)SCCNC(=O)CCNC(=O)[C@H](O)C(C)(C)COP(=O)(O)OP(=O)(O)OC[C@H]1O[C@@H](n2cnc3c(N)ncnc32)[C@H](O)[C@@H]1OP(=O)(O)O [palmitoyl-CoA] |  |  | wax synthase activity towards acyl-thioester substrates (jojoba wax synthase; as acyl substrate): greatest activity
12 | O=C(O)c1cc[c]([Hg][OH])cc1 [para-hydroxymercuribenzoate] |  |  | effect of sulphydryl agents on wax synthase activity (inhibition) (jojoba wax synthase): Inhibition; reversal of inhibition of wax synthase activity (jojoba wax synthase; subsequent addition of DTT): could be reversed
13 | jojoba wax synthase (microsomal membrane fraction having wax synthase activity) (pool or library) |  |  | wax synthase activity (% of that with acyl-CoA) (palmitoyl-ACP): 10
14 | palmitoyl-ACP |  |  | wax synthase activity relative to acyl-CoA (jojoba wax synthase; as acyl substrate): ~10 % of that with acyl-CoA
